Data published in US12496275B2, “Drug delivery methods and compositions” (Mayo Foundation for Medical Education and Research, priority 2019, dated 2025).

Assays:
[1] = Analysis of encapsulation efficiency and drug loading efficiency of liposomes; format: physicochemical
Experimental: Analysis of encapsulation efficiency and drug loading efficiency: Liposome-encapsulation efficiency was measured by determining the amount of entrapped drugs. Briefly, the drug-loaded liposome sample was centrifuged in an amicon ultra centrifugal filter with a cut off size of 3 kD in order to separate the unentrapped drug. Total (Tdrug) and unentrapped drug (UEdrug) amounts were determined by measuring the absorbance at λx of respective drugs and comparing with corresponding standard curves. The encapsulated drug (Edrug) amount was calculated by subtracting the amount of unentrapped drugs (UEdrug) from total drug (Tdrug) amount. The drug-encapsulation efficiency (EE %) was expressed as the percentage of the encapsulated amount (Edrug) to the total amount (Tdrug). Drug loading efficiency was expressed as the percentage of encapsulated drug (Edrug) to the total lipid amount (Tlipid).

[2] = stated, no test described; cited from earlier work
[3] = test system: AsPC-1 cells; test: In vitro gemcitabine sensitivity after Tet-inducible GIPC shRNA knockdown; format: cell-based, human; details: AsPC-1, 0.5 μM to 50 μM, 72 h
Experimental: (§1) Antibodies. Antibody for β-actin and horseradish peroxidase-conjugated secondary antibodies were purchased from Santa Cruz Biotechnology. Anti-GIPC antibody was purchased from Thermo Fisher, USA. shRNA Transfection. The plasmids for Tet-on-inducible GIPC1 shRNA were purchased from Dharmacon, US. Lentivirus stocks for GIPC1 shRNA were prepared and infected into the target cells following standard procedures. After infection, 2 μg/mL of puromycin was added to the medium for antibiotic selection. For the Tet-On-inducible GIPC shRNA, 0.4 μg/mL of doxycycline was used to induce shRNA expression in the stably infected cells.
(§2) In vitro cytotoxicity assay: Approximately, 5×10^3 cells were seeded in 384-well plates. After 18-24 h, cells were treated with increasing concentrations of gemcitabine and incubated for further 72 h. At the end of the incubation, cell viability was measured using CellTiter-Glo® 2.0 Assay (Promega) as per the manufacturer's protocol. Briefly, 24 μL of reagent was added to each well. The plate was incubated at RT for 10 minutes and luminescence signals were measured using Spectramax i3x. Percentage viability is calculated as follows: Viability (%)=100×(ATreated−ABlank)/(AUntreated−ABlank).

[4] = test system: PANC-1 cells; test: as above; format: cell-based, human; details: PANC-1, 0.5 μM to 50 μM, 72 h
Experimental: as §1, §2

[5] = test system: AsPC-1 orthotopic xenografts; test: Single mouse trial, GIPC-1 knockdown plus gemcitabine; format: in vivo, mice; details: AsPC-1, single mouse, gemcitabine 10 mg/kg
Text: (§3) In vivo tumor growth inhibition experiment: A single mouse trial (SMT) was used to assess the in vivo tumor inhibition study in combination with GIPC-1 knockdown plus gemcitabine treatment. This strategy is currently being used in ‘Avatar’ models for the development of personalized therapy for various diseases. These ‘Avatar’ models are developed by implanting patient tumor samples in mice for subsequent drug efficacy studies. […] We used the same strategy in our SMT. All procedures were performed according to the approved guidelines. For the pancreatic cancer orthotopic model, 6-8-week-old female SCID mice were obtained from in-house breeding. Approximately, 1×10^6 luciferase-labeled Tet-inducible GIPC-1 shRNA vector-transfected AsPC-1 or PANC-1 cells, resuspended in 100 μL of PBS were injected into the pancreas of each mouse. After three days of cell inoculation, GIPC-1 knockdown was induced by adding doxycycline (0.5 mg/mL) in drinking water for the remainder of the study. […] After completion of the experiment, all tumor-bearing mice were euthanized with CO2; tumors were harvested, and tumor volumes and weights were measured.

[6] = test system: PANC-1 orthotopic xenografts; test: as above; format: in vivo, mice; details: PANC-1, single mouse, gemcitabine 10 mg/kg
Text: as §3

[7] = test system: AsPC-1 tumors; test: Validation study, GIPC-1 knockdown plus gemcitabine, 5 mice per group; format: in vivo; details: AsPC-1, 5 mice per group, gemcitabine 10 mg/kg
Experimental: as §3, with “This” for “In vivo tumor growth inhibition experiment: A single mouse trial (SMT) was used to assess the in vivo tumor inhibition study in combination with GIPC-1 knockdown plus gemcitabine treatment. This”

NC(N)=NCCC[C@H](NC(=O)c1sccc1NS(=O)(=O)c1cccc2nsnc12)C(=O)O [EG00229]
% of Total drug loading w.r.t Total lipid ([1]; EG00229): 2.2%
Encapsulation efficiencies (%) ([1]; EG00229): 30%

CCc1c2c(nc3ccc(OC(=O)N4CCC(N5CCCCC5)CC4)cc13)-c1cc3c(c(=O)n1C2)COC(=O)[C@]3(O)CC [IRT, irinotecan]
water solubility [2]: poorly water-soluble

CO[C@H]1C[C@@H]2CC[C@@H](C)[C@@](O)(O2)C(=O)C(=O)N2CCCC[C@H]2C(=O)O[C@H]([C@H](C)C[C@@H]2CC[C@@H](OCCO)[C@H](OC)C2)CC(=O)[C@H](C)/C=C(\C)[C@@H](O)[C@@H](OC)C(=O)[C@H](C)C[C@H](C)/C=C/C=C/C=C/1C [everolimus]
% of Total drug loading w.r.t Total lipid ([1]; everolimus): 7.29%
Encapsulation efficiencies (%) ([1]; everolimus): ~100%
water solubility [2]: water insoluble

Nc1ccn([C@@H]2O[C@H](CO)[C@@H](O)C2(F)F)c(=O)n1 [gemcitabine]
growth inhibition by gemcitabine in GIPC-depleted vs control cells [3]: steeper growth inhibition curve
growth inhibition by gemcitabine in GIPC-depleted vs control cells ([3]; listed as Gemcitabine): sensitizes
growth inhibition by gemcitabine in GIPC-depleted vs control cells [4]: steeper growth inhibition curve
growth inhibition by gemcitabine in GIPC-depleted vs control cells ([4]; listed as Gemcitabine): sensitizes
response of GIPC-depleted tumors to gemcitabine (tumor volume, weight) [5]: increasing gemcitabine efficacy
response of GIPC-depleted tumors to gemcitabine (tumor volume, weight) ([5]; listed as Gemcitabine): significantly higher response
response of GIPC-depleted tumors to gemcitabine (tumor volume, weight) [6]: increasing gemcitabine efficacy
response of GIPC-depleted tumors to gemcitabine (tumor volume, weight) ([6]; listed as Gemcitabine): significantly higher response
response of GIPC-depleted tumors to gemcitabine (tumor volume, weight) [7]: increasing gemcitabine efficacy
response of GIPC-depleted tumors to gemcitabine (tumor volume, weight) ([7]; listed as Gemcitabine): more or less similar results

CCC1=C[C@@H]2CN(C1)Cc1c([nH]c3ccccc13)[C@@](C(=O)OC)(c1cc3c(cc1OC)N(C)[C@H]1[C@@](O)(C(=O)OC)[C@H](OC(C)=O)[C@]4(CC)C=CCN5CC[C@]31[C@@H]54)C2 [vinorelbine]
% of Total drug loading w.r.t Total lipid ([1]; vinorelbine): 3.5%
Encapsulation efficiencies (%) ([1]; vinorelbine): 23.7%
water solubility [2]: highly water soluble
